What was measured:
5-HT1a = biological target: T1, 5-HT1a (Homo sapiens, UniProt P08908); assay: 5-HT1a IC50; format: binding
T1 sequence (P08908 1-422): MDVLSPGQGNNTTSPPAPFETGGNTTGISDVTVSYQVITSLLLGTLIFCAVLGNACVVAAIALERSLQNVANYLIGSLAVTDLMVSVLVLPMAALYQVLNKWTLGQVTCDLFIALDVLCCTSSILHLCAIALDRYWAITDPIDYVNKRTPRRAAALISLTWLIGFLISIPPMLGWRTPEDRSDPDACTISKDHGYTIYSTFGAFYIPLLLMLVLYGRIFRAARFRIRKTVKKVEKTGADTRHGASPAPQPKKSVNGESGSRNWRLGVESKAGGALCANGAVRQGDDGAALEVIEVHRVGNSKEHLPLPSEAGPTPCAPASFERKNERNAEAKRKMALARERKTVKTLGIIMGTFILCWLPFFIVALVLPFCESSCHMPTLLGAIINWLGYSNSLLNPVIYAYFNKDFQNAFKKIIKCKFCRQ

α1 = α1 IC50; format: binding
D2 [1] = biological target: T2, D2 (Rattus norvegicus, UniProt P61169); assay: Affinity for the dopamine autoreceptor: 3H-quinpirole (Quin.) binding, homogenized rat striatal brain tissue; set-up: homogenized rat striatal brain tissue; from tissue; host or cells: rat striatal brain tissue, homogenized
D2 [2] = biological target: T2, D2; assay: Affinity for the dopamine D-2 receptor: 3H-spiroperidol (Spiper.) binding, homogenized limbic brain tissue; set-up: homogenized limbic brain tissue is incubated with; from tissue; host or cells: limbic brain tissue, homogenized

T2 sequence (P61169 whole entry): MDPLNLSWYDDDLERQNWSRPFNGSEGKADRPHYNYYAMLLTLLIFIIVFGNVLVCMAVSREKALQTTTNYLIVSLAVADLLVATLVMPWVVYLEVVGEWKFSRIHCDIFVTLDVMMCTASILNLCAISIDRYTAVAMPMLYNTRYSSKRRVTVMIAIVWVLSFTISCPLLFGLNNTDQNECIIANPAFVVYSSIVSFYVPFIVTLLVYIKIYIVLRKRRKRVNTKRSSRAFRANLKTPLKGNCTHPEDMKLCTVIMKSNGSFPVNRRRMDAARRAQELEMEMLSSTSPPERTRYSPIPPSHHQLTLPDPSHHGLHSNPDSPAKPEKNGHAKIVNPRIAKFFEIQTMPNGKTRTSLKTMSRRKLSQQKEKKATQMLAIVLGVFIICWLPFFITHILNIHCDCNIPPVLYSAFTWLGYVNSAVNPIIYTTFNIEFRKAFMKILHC

IC50 (5-HT1a): 303 nM | IC50 (α1): 277 nM | IC50 (D2 [1]; 3H-quinpirole, rat striatal brain tissue): 9.29 nM | Ratio (D2 [1]; not defined in print, values match D2 Spiper. IC50 / D2 Quin. IC50): 234 | IC50 (D2 [2]): 2180 nM
SMILES: O=C1CCC(=O)N1CCCNCC1CCc2ccc(O)cc2O1 (centres unmarked) [Example 3d, 1-{3-[(7-Hydroxy-chroman-2-ylmethyl)-amino]-propyl}-pyrrolidine-2,5-dione]
